Values quoted from earlier work in US20230165871A1, “COMBINATION THERAPIES FOR INHIBITION OF POLO-LIKE KINASE 4” (UNIVERSITY HEALTH NETWORK, priority 2020, published 2023).

Experiments:
[1] = clinical
[2] = tested on: cell line and patient-derived xenografts of breast and ovarian cancer; conditions: tolerable doses
[3] = in vivo
cancer cell lines = conditions: via induction of apoptosis and cell cycle arrest with induction of aneuploidy

SMILES: COc1ccc2c(c1)[C@]1(C[C@H]1c1ccc3c(/C=C/c4ccc(CN5C[C@@H](C)O[C@@H](C)C5)cc4)n[nH]c3c1)C(=O)N2 [Compound (I)]
- major toxic effects which limit dose [1]: neutropenia, thrombocytopenia, fever, diarrhea and increased liver function tests
- anti-tumour effects in xenograft models [2]: potent anti-tumour effects at tolerable doses
- oral bioavailability [3]: orally bioavailable
- anti-proliferative effects in cancer cell lines (cancer cell lines): potent anti-proliferative effects
